Assay results reported in ChEMBL document CHEMBL1144577, “1,5-Biaryl pyrrole derivatives as EP1 receptor antagonists. Structure-activity relationships of 6-substituted and 5,6-disubstituted benzoic acid derivatives” (Bioorg Med Chem Lett, 2007).

Columns and labels:
Rattus norvegicus [1] = assay: Reversal of hypersensitivity in po dosed FCA rat model of inflammatory pain; format: functional
[2] = Volume of distribution at steady state in rat; format: ADME, organism-based; details: in vivo, read-out: Vss
[3] = Blood clearance in rat; format: ADME, organism-based
Rattus norvegicus [4] = assay: Normalized AUC (0 to t) in rat at 3 mg/kg, po; format: ADME, organism-based; set-up: dose 3 mg/kg, route oral; details: in vivo
[5] = Cmax in rat at 3 mg/kg, po; format: ADME, organism-based; set-up: dose 3 mg/kg, route oral; details: in vivo
[6] = Tmax in rat at 3 mg/kg, po; format: ADME, organism-based; set-up: dose 3 mg/kg, route oral; details: in vivo
[7] = target: T1, Prostaglandin E2 receptor EP1 subtype (Homo sapiens, UniProt P34995); assay: Displacement of [3H]PGE2 from human recombinant EP1 receptor expressed in CHOK1 cell membrane; format: cell membranes, CHO-K1
T1 sequence (P34995 whole entry): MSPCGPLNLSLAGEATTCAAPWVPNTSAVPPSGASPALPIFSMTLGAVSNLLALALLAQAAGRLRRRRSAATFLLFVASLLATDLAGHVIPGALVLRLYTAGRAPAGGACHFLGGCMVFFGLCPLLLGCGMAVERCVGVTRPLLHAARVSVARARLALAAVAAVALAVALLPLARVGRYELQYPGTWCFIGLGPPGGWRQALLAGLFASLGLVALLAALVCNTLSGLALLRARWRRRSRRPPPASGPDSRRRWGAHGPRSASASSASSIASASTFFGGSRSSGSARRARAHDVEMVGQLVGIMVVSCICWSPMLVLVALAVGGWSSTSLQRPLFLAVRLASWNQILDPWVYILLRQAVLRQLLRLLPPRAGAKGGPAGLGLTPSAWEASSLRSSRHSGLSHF

Rattus norvegicus [8] = assay: Reversal of hypersensitivity in FCA rat model of inflammatory pain at 5 mg/kg, po; format: functional

Compound Cc1ccc(-c2cc(Br)ccc2OCc2ccc(F)cc2)n1-c1cccc(C(=O)O)c1 has an ED50 (Rattus norvegicus [1]) of 9.2 mg/kg, a Vd [2] of 0.7 L/kg and a clearance [3] of 42 mL/min/kg.

Compound COc1ccc(-n2c(C)ccc2-c2cc(Br)ccc2OCc2ccc(F)cc2F)cc1C(=O)O has an AUC/dose (Rattus norvegicus [4]) of 4 kg·min/L, a Cmax [5] of 340 nM and a Tmax [6] of 30 min. The IC50 [7] was 0.398 nM.

Work on Cc1c(N)cc(-n2c(C)ccc2-c2cc(C(F)(F)F)ccc2OCc2ccccc2)cc1C(=O)O yielded an AUC/dose (Rattus norvegicus [4]) of 31 kg·min/L, a Cmax [5] of 910 nM and an Activity (Rattus norvegicus [8]) of 40%. For the same compound, the Tmax [6] was 30 min and the IC50 [7] was 3.98 nM.

For Cc1c(N)cc(-n2c(C)ccc2-c2cc(Br)ccc2OCc2ccc(F)cc2)cc1C(=O)O, the AUC/dose (Rattus norvegicus [4]) was 52 kg·min/L, the Cmax [5] was 1350 nM and the Activity (Rattus norvegicus [8]) was 50%. It also gave a Tmax [6] of 66 min and an IC50 [7] of 0.794 nM.

Cc1ccc(-c2cc(Br)ccc2OCc2ccc(F)cc2)n1-c1ccc(OC(F)F)c(C(=O)O)c1 gave an IC50 [7] of 2 nM.

Compound Cc1c(N)cc(-n2c(C)ccc2-c2cc(C(F)(F)F)ccc2OCc2ccc(F)cc2)cc1C(=O)O has an IC50 [7] of 3.98 nM.

Work on Cc1ccc(-c2cc(Cl)ccc2OCc2ccccc2)n1-c1cc(C(=O)O)c2ccccc2c1 yielded an AUC/dose (Rattus norvegicus [4]) of 9 kg·min/L, a Cmax [5] of 220 nM and a Tmax [6] of 240 min. It also gave an IC50 [7] of 6.31 nM.

For Cc1ccc(-c2cc(Br)ccc2OCc2ccc(F)cc2)n1-c1cc(C(=O)O)c2ccccc2c1, the AUC/dose (Rattus norvegicus [4]) was 9 kg·min/L, the Cmax [5] was 520 nM and the Tmax [6] was 30 min. It also gave an IC50 [7] of 5.01 nM.

Cc1ccc(-c2cc(Cl)ccc2OCc2ccccc2)n1-c1cc(C(=O)O)c2cc[nH]c2c1 gave an IC50 [7] of 1.26 nM.

Cc1ccc(-c2cc(Br)ccc2OCc2ccc(F)cc2)n1-c1ccc(F)c(C(=O)O)c1 gave an IC50 [7] of 1.26 nM.

With Cc1ccc(-c2cc(C(F)(F)F)ccc2OCc2ccccc2)n1-c1ccc(F)c(C(=O)O)c1 the AUC/dose (Rattus norvegicus [4]) was 27 kg·min/L, the Cmax [5] was 870 nM and the Activity (Rattus norvegicus [8]) was 56%. For the same compound, the Tmax [6] was 36 min and the IC50 [7] was 2 nM.

With Cc1ccc(OCc2ccc(F)cc2)c(-c2ccc(C)n2-c2ccc(F)c(C(=O)O)c2)c1 the IC50 [7] was 15.8 nM.

Compound Cc1ccc(-c2cc(F)ccc2OCc2ccc(F)cc2)n1-c1ccc(F)c(C(=O)O)c1 has an IC50 [7] of 12.6 nM.

For Cc1ccc(-c2cc(Br)ccc2OCc2ccc(F)cc2)n1-c1ccc(Cl)c(C(=O)O)c1, the IC50 [7] was 2.51 nM.
